Experimental data reported in PMC3776780, “Dual p38/JNK Mitogen Activated Protein Kinase Inhibitors Prevent Ozone-Induced Airway Hyperreactivity in Guinea Pigs” (PLoS ONE, 2013).

Assays:
Test in all cases: spectrophotometric coupled-enzyme kinase inhibition assay
Type in all cases: biochemical
[1] = molecular target: LCK (Homo sapiens, UniProt P06239); conditions: read-out: Ki or IC50 LCK
How it was run: (§1)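 Activated kinase (10–40 nM) was preincubated with inhibitor in DMSO for 10 min at 30°C in 0.1 M HEPES pH 7.5 with MgCl2, pyruvate kinase/lactate dehydrogenase coupling, NADH and 200 µM–500 µM EGF receptor peptide; ATP at its Km started the reaction. A340 decrease was followed 10 min; rates gave IC50 or competitive Ki.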

[2] = molecular target: ITK (Homo sapiens, UniProt Q08881); conditions: read-out: Ki or IC50 ITK
How it was run: as §1

[3] = molecular target: COT (Homo sapiens, UniProt P41279); conditions: read-out: Ki or IC50 COT
How it was run: as §1

[4] = molecular target: FAK (Homo sapiens, UniProt Q05397); conditions: read-out: Ki or IC50 FAK
How it was run: as §1

Chain of LCK (P06239 whole entry, species assumed): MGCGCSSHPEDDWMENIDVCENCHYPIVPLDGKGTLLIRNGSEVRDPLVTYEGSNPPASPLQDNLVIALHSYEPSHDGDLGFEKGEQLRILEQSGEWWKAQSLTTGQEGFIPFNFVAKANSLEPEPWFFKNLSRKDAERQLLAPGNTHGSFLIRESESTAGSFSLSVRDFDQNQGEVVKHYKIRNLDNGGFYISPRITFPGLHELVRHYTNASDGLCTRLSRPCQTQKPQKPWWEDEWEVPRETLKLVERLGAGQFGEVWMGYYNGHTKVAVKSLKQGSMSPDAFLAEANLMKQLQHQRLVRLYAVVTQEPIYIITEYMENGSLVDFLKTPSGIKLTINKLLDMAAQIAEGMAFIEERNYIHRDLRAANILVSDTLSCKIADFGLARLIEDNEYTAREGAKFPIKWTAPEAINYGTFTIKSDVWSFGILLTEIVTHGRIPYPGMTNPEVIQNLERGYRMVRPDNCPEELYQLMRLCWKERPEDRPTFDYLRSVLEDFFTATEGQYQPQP
Chain of COT (P41279 whole entry): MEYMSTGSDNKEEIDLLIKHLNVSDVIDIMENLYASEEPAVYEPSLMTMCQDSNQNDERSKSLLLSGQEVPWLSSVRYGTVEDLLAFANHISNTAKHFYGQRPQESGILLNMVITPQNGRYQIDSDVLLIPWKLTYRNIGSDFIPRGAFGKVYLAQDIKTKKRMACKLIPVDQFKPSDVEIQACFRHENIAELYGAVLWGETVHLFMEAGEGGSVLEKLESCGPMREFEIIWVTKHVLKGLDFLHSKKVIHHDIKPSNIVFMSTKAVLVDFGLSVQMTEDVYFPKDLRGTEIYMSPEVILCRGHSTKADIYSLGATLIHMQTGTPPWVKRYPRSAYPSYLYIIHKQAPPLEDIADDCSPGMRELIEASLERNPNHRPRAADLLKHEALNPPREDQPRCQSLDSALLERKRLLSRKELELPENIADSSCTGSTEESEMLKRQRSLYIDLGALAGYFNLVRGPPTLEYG
Chain of FAK (Q05397 whole entry, species assumed): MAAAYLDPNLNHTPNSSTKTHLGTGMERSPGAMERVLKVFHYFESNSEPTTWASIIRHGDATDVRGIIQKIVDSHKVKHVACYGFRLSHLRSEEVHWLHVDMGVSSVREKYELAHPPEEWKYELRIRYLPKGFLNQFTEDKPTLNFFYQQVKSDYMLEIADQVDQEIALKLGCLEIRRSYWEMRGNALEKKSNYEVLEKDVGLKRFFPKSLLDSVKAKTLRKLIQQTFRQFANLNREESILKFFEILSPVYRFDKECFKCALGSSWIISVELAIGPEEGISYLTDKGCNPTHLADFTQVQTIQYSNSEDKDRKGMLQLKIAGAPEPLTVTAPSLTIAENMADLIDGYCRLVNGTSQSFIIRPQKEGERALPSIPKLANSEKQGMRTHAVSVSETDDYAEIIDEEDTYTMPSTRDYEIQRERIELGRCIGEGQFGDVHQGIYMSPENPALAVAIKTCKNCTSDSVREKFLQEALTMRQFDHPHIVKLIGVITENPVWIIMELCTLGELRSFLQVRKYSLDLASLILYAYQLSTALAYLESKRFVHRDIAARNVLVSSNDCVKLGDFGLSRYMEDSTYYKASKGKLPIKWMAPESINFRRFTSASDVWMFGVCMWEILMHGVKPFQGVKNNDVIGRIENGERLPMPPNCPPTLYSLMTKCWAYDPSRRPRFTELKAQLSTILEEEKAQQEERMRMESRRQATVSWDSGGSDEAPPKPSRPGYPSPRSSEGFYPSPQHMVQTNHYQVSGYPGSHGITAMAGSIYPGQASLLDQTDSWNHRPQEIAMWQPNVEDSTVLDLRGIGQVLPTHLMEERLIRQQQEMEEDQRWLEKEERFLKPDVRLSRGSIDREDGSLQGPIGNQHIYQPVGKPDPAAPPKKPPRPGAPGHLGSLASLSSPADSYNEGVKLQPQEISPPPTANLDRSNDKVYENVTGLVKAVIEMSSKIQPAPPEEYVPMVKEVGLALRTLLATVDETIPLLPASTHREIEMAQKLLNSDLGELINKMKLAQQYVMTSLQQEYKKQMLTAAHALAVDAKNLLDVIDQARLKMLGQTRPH
Chain of ITK (Q08881 whole entry, species assumed): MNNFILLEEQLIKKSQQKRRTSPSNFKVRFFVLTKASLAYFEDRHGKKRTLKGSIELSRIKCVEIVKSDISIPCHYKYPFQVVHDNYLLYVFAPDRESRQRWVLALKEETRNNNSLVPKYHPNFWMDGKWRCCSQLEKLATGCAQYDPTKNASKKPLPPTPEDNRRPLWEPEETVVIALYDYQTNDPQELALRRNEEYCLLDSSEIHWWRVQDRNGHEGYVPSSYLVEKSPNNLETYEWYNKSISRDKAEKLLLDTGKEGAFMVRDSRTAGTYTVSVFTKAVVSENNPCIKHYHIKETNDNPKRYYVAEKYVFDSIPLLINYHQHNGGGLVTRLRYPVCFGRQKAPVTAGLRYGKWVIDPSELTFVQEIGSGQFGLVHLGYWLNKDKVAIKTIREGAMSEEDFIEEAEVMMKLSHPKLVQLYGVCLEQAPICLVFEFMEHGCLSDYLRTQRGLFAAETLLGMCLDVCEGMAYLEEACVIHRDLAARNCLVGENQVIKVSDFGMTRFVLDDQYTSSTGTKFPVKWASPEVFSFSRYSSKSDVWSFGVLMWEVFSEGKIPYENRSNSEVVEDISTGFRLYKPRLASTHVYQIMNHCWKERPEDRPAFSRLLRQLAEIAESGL

| SMILES | Ki [1] [nM] | Ki [2] [nM] | Ki [3] [nM] | Ki [4] [nM] |
| --- | --- | --- | --- | --- |
| Fc1ccc(-c2noc(CN3CCCCC3)c2-c2ccnc(NC3CCCCC3)n2)cc1 [V-05-015] | > 1000 |  |  |  |
| OC1CCN(Cc2onc(-c3ccc(F)cc3)c2-c2ccnc(NC3CCCCC3)n2)CC1 [V-05-013] |  | > 1000 |  |  |
| OC[C@@H]1CCCN1Cc1onc(-c2ccc(F)cc2)c1-c1ccnc(NC2CCCCC2)n1 [V-05-014] | > 1000 |  | > 1000 | > 1000 |
